Results as given in PubChem BioAssay (NCI).
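Dose response: 5 concentrations. Exposure: 48 h. Format: 96-well plates. Endpoint: linear interpolation; highest concentration if not reached. GI50: concentration for 50% inhibition of growth. TGI: concentration producing complete growth inhibition.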

Experiments:
Assay in all cases: NCI tumour cell line growth inhibition, 48 h
KM12 colon = system: KM12 colon
ACHN renal = system: ACHN renal
HOP-92 NSCLC = system: HOP-92 NSCLC
K-562 leukemia = system: K-562 leukemia
U251 CNS = system: U251 CNS
SK-MEL-28 melanoma = system: SK-MEL-28 melanoma
HT29 colon = system: HT29 colon
UACC-62 melanoma = system: UACC-62 melanoma
MDA-MB-231 breast = system: MDA-MB-231 breast
CCRF-CEM leukemia = system: CCRF-CEM leukemia

Row | Compound | TGI (KM12 colon) [µM] | TGI (ACHN renal) [µM] | TGI (HOP-92 NSCLC) [µM] | TGI (K-562 leukemia) [µM] | TGI (U251 CNS) [µM] | TGI (SK-MEL-28 melanoma) [µM] | TGI (HT29 colon) [µM] | TGI (UACC-62 melanoma) [µM] | TGI (MDA-MB-231 breast) [µM] | TGI (CCRF-CEM leukemia) [µM] | GI50 (KM12 colon) [µM] | GI50 (HOP-92 NSCLC) [µM] | GI50 (K-562 leukemia) [µM] | GI50 (SK-MEL-28 melanoma) [µM] | GI50 (HT29 colon) [µM] | GI50 (MDA-MB-231 breast) [µM] | GI50 (CCRF-CEM leukemia) [µM] | GI50 (ACHN renal) [µM] | GI50 (U251 CNS) [µM] | GI50 (UACC-62 melanoma) [µM]
1 | O=C1C=C(Br)c2c(-c3ccccc3)oc3cccc1c23 | > 100 | > 100 | > 100 | > 86.8 | > 100 | > 100 | > 100 | > 100 | 78.2 | > 47.6 | – | – | – | – | – | – | – | – | – | –
2 | O=C(/C(=C/c1ccc([N+](=O)[O-])cc1)c1ccccc1)c1ccccc1 | 9.52 | – | 6.98 | > 100 | – | 5.63 | > 100 | – | > 100 | > 100 | 3.06 | 2.22 | 3.08 | 2.27 | 3.33 | 3.16 | 2.25 | – | – | –
3 | O=C(c1ccccc1)C(CN1CCOCC1)c1ccccc1 (stereo not drawn) | 3.73 | 2.71 | 2.87 | 3.38 | 4.09 | 3.35 | 1.89 | 4.21 | 5.05 | 1.19 | 1.8 | 1.33 | 0.355 | 1.76 | 0.501 | 1.83 | 0.283 | 1.3 | 1.71 | 1.71
4 | Cc1cc(N/N=C/c2nc(-c3ccc(Br)cc3)oc2C)c2cc(Cl)ccc2n1 | > 100 | > 100 | > 100 | > 100 | > 100 | > 100 | > 100 | > 100 | > 100 | > 100 | > 100 | > 100 | > 100 | > 100 | > 100 | > 100 | > 100 | > 100 | > 100 | > 100
5 | COc1cc2c(cc1OCCCCOc1cc3c(cc1OC)C(=O)N1CCC[C@H]1CN3)N=C[C@@H]1CCCN1C2=O | 86.2 | 29 | 3.3 | > 37.9 | > 100 | 11.8 | > 23.2 | 3.03 | 5.26 | – | 1.97 | 0.366 | 0.174 | 2.86 | 2.37 | 1.05 | 0.243 | 2.62 | 0.392 | 1.3
6 | O=C(/C(=C/c1ccccc1)CN1CCCCC1)c1ccccc1 | 6.88 | 1.44 | 6.74 | > 33.6 | 3.22 | 3.5 | 1.27 | 4.36 | 5.75 | > 45.3 | 2.09 | 2.68 | 0.566 | 1.63 | 0.518 | 1.96 | 0.346 | 0.518 | 1.35 | 1.42
7 | N/C(=N\N=C\c1ccc(-c2ccccc2)cc1)N[N+](=O)[O-] | > 100 | > 100 | > 100 | > 100 | > 100 | > 100 | > 100 | > 100 | > 100 | > 100 | 1.27 | 2.18 | 0.481 | 25.3 | 3.59 | > 68 | 3.1 | > 100 | 3.05 | 0.771
8 | COc1ccc(-c2n[nH]nc2-c2cc(OC)c3c(c2OC)OCO3)cc1 | 44.7 | > 100 | 22.6 | > 82.4 | 11 | > 100 | 13.7 | 14 | 17.4 | > 100 | 0.426 | 0.685 | 0.277 | 1.95 | 0.48 | 1.71 | 0.565 | 9.16 | 0.817 | 0.553
9 | Nc1ncnc2[nH]ncc12 | 18.3 | > 100 | 3.61 | > 100 | > 100 | 99 | > 94.5 | 3.48 | > 100 | > 100 | 1.26 | 0.431 | 0.279 | 2.77 | 1.83 | 0.577 | 3.57 | 0.535 | 4.83 | 0.512
10 | CCCCNCC(=O)O[C@]1(CC)C(=O)OCc2c1cc1n(c2=O)Cc2cc3ccccc3nc2-1 | 6.55 | 3.77 | 12.3 | > 48.7 | 4.49 | > 93.8 | > 100 | 0.925 | > 100 | 0.723 | – | – | – | – | – | – | – | – | – | –
11 | CC(CN1CCN(CCOCCO)CC1)CN1c2ccccc2Sc2ccc(Cl)cc21 (stereo not drawn) | 8.21 | 12.6 | 4.63 | 4.18 | 6.04 | 3.22 | 3.36 | 3.44 | 4.79 | 8.74 | 2.78 | 1.01 | 1.96 | 1.75 | 1.79 | 1.86 | 2.68 | 3.46 | 2.19 | 1.75
12 | Cc1ccc(C2=NOC3=c4ccccc4=CSC3=C2c2ccc([N+](=O)[O-])cc2)cc1 | > 100 | 61.4 | 68.2 | > 100 | 36.1 | > 100 | > 100 | 31.3 | 28 | > 100 | 61.1 | 18 | 36.1 | > 100 | > 100 | 8.59 | 39.3 | 13.8 | 10.3 | 14.5
13 | O=[N+]([O-])c1cccc(-c2nc3sccn3c2-c2ccnc(NCCCNS(=O)(=O)c3cccc(F)c3)n2)c1 | 8.14 | 11.2 | 30.3 | > 100 | 39.4 | 7.76 | > 100 | 4.26 | 27.2 | > 100 | 2.39 | 2.8 | 1.73 | 2.63 | 3.12 | 6.41 | 1.3 | 2.19 | 4.56 | 1.16
